Usually EC50 stands for the concentration giving half of the maximal effect. High values mean a less potent agent, low ones a more potent agent.

The structures appear in SMILES notation. Where “and” joins values, the source holds several entries; their conditions need not be identical. Identical values can stand only once.

The record followed here is US10011615B2, “Heterobicyclo-substituted [1,2,4]triazolo[1,5-c]quinazolin-5-amine compounds with A2A anatagonist properties” (Merck Sharp & Dohme Corp., priority 2012, dated 2018).

In the test the target is T1, human A2a receptor (Homo sapiens, UniProt P29274).
T1 construct: purchased Perkin-Elmer RBHA2AM400UA; host or cells: HEK293 cell membranes
T1 sequence (P29274 whole entry): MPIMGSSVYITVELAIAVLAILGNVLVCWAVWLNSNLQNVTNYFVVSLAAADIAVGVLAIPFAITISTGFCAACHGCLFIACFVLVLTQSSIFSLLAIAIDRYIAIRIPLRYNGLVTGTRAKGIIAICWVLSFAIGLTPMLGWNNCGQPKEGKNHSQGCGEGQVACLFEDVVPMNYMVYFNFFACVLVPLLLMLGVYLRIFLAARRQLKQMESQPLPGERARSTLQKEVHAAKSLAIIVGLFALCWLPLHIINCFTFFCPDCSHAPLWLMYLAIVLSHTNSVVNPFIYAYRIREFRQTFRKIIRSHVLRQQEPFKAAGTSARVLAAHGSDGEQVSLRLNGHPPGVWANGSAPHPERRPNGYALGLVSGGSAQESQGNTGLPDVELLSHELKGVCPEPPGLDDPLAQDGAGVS
Description: A2a receptor competition binding assay using Scintillation Proximity technology. The note with it: membranes from HEK293 cells expressing human A2a receptor; 0.5 nM tritiated radioligand; SPA beads; 1 h room temperature. Put shortly: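 Membranes of HEK293 cells expressing human A2a, pretreated with adenosine deaminase, incubated 1 h at room temperature with 0.5 nM tritiated pyrazolotriazolopyrimidine antagonist (final) and compound (3000 to 0.15 nM) on WGA SPA beads in Ca/Mg-free PBS with 10 mM MgCl2. Ki from EC50 via Cheng-Prusoff.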
Turning to `COc1cccc2c1nc(N)n1nc(CN3CCc4ccc(-c5cnn(C)c5)cc4C3)nc21` [Ex-180], the EC50 was 9 nM.
With `Cc1cccc2c1nc(N)n1nc(CN3CCc4cccnc4C3)nc21` [Ex-201] the figure was 21.7 nM; with `COc1cccc2c1nc(N)n1nc(CC(N3Cc4cccnc4C3)C(F)(F)F)nc21` (centres unmarked) [Ex-108], 17.9 nM; with `COc1cccc2c1nc(N)n1nc(CN3Cc4ccccc4C(C)(C)C3)nc21` [Ex-163, 2-((4,4-dimethyl-3,4-dihydroisoquinolin-2(1H)-yl)methyl)-7-methoxy-[1,2,4]triazolo[1,5-c]quinazolin-5-amine], 2.7 nM.
As for `COc1cccc2c1nc(N)n1nc(CCN3Cc4ccc(Cl)nc4C3)nc21` [Ex-5, 2-(2-(2-chloro-5H-pyrrolo[3,4-b]pyridin-6(7H)-yl)ethyl)-7-methoxy-[1,2,4]triazolo[1,5-c]quinazolin-5-amine], the figure is 4.7 nM; as for `COc1ccc2c(nc(N)n3nc(CCN4Cc5cccnc5C4)nc23)c1OC` [Ex-97], 238 nM; as for `COc1cccc2c1nc(N)n1nc(CCN3CCn4nc(C)cc4C3)nc21` [Ex-41, 7-methoxy-2-(2-(2-methyl-6,7-dihydropyrazolo[1,5-a]pyrazin-5(4H)-yl)ethyl)-[1,2,4]triazolo[1,5-c]quinazolin-5-amine], 2.6 nM.
As for `CCN1CCN(c2ccc3c(n2)CN(CCc2nc4c5cccc(OC)c5nc(N)n4n2)C3)CC1` [Ex-66], the figure is 16.6 nM; as for `COc1cccc2c1nc(N)n1nc(CCN3CCc4nc(C(F)(F)F)[nH]c4C3)nc21` [Ex-16, 7-methoxy-2-(2-(2-(trifluoromethyl)-6,7-dihydro-3H-imidazo[4,5-c]pyridin-5(4H)-yl)ethyl)-[1,2,4]triazolo[1,5-c]quinazolin-5-amine], 2.3 nM; as for `COc1cccc2c1nc(N)n1nc(CCN3CCc4cc(F)ccc4C3)nc21` [Ex-44, 2-(2-(6-fluoro-3,4-dihydroisoquinolin-2(1H)-yl)ethyl)-7-methoxy-[1,2,4]triazolo[1,5-c]quinazolin-5-amine], 4.2 nM.
Take `CCc1nnc2n1CCN(CCc1nc3c4cccc(F)c4nc(N)n3n1)C2` [Ex-86]: a half-maximal effect (EC50) was put at 6.7 nM.
As for `COc1cccc2c1nc(N)n1nc(C[C@@H](C)N3CCc4nc(C)oc4C3)nc21` [Ex-211, (R)-7-methoxy-2-(2-(2-methyl-6,7-dihydrooxazolo[5,4-c]pyridin-5(4H)-yl)propyl)-[1,2,4]triazolo[1,5-c]quinazolin-5-amine], the figure is 3 nM; as for `COc1cccc2c1nc(N)n1nc(CCN3Cc4ccc(N5CCCC5)nc4C3)nc21` [Ex-65], 13.6 nM.
With `COc1cccc2c1nc(N)n1nc(CCN3Cc4oc(C)nc4CC3C)nc21` (centres unmarked) [Ex-237, 2-(2-(2,6-dimethyl-6,7-dihydrooxazolo[5,4-c]pyridin-5(4H)-yl)ethyl)-7-methoxy-[1,2,4]triazolo[1,5-c]quinazolin-5-amine] the figure was 3.5 nM.
With `COc1cccc2c1nc(N)n1nc(CCN3CCc4nc(C)sc4C3)nc21` [Ex-29, 7-methoxy-2-(2-(2-methyl-6,7-dihydrothiazolo[5,4-c]pyridin-5(4H)-yl)ethyl)-[1,2,4]triazolo[1,5-c]quinazolin-5-amine] the figure was 1.7 nM.
In the case of `COc1cccc2c1nc(N)n1nc(CCN3CCc4oc(C)nc4C3)nc21` [Ex-27, 7-methoxy-2-(2-(2-methyl-6,7-dihydrooxazolo[4,5-c]pyridin-5(4H)-yl)ethyl)-[1,2,4]triazolo[1,5-c]quinazolin-5-amine], the EC50 was determined as 1.6 nM.
As for `COc1cccc2c1nc(N)n1nc(CCN3CCCn4nc(C#N)cc4C3)nc21` [Ex-61, 5-(2-(5-amino-7-methoxy-[1,2,4]triazolo[1,5-c]quinazolin-2-yl)ethyl)-5,6,7,8-tetrahydro-4H-pyrazolo[1,5-a][1,4]diazepine-2-carbonitrile], the midpoint of the response, the EC50, lay at 2.5 nM.
As for `COc1cccc2c1nc(N)n1nc(CC(=O)N3CCc4ccccc4CC3)nc21` [Ex-78], the figure is 13.8 nM; as for `COc1cccc2c1nc(N)n1nc(CCN3CCc4sc(C)nc4C3)nc21` [Ex-25, 7-methoxy-2-(2-(2-methyl-6,7-dihydrothiazolo[4,5-c]pyridin-5(4H)-yl)ethyl)-[1,2,4]triazolo[1,5-c]quinazolin-5-amine], 0.9 nM; as for `Nc1nc2cc(F)ccc2c2nc(CCN3Cc4cccnc4C3)nn12` [Ex-92], 73.7 nM.
Regarding `COc1cccc2c1nc(N)n1nc(C[C@H](C(F)F)N3Cc4cccnc4C3)nc21` [Ex-102], the EC50 is 55.2 nM.
With `COc1cccc2c1nc(N)n1nc(C[C@@H](C)N3Cc4cccnc4C3)nc21` [Ex-107] the figure was 6.9 nM.
As for `COc1cccc2c1nc(N)n1nc(CN3CCCc4ccc(C)nc43)nc21` [Ex-156], the figure is 6 nM; as for `COc1cccc2c1nc(N)n1nc(CCCN3Cc4cccc(F)c4C3)nc21` [Ex-228, 2-(3-(4-fluoroisoindolin-2-yl)propyl)-7-methoxy-[1,2,4]triazolo[1,5-c]quinazolin-5-amine], 7.8 nM; as for `CC[C@H](Cc1nc2c3cccc(OC)c3nc(N)n2n1)N1Cc2cccnc2C1` [Ex-112], 4.9 nM.
As for `COCc1cccc2c1nc(N)n1nc(CN3CCc4cccnc4C3)nc21` [Ex-199], the figure is 199 nM; as for `COc1cccc2c1nc(N)n1nc(CC(C)N3Cc4ccc(F)cc4C3)nc21` (centres unmarked) [Ex-114], 4.3 nM.
Turning to `COc1cccc2c1nc(N)n1nc(CCN3Cc4nc(C5CC5)sc4C3)nc21` [Ex-241, 2-(2-(2-cyclopropyl-4H-pyrrolo[3,4-d]thiazol-5(6H)-yl)ethyl)-7-methoxy-[1,2,4]triazolo[1,5-c]quinazolin-5-amine], a half-maximal response (EC50) required 7.3 nM.
With `Nc1nc2cc(F)ccc2c2nc(CCN3CCc4ccccc4C3)nn12` [Ex-93] the figure was 37.5 nM; with `COc1cccc2c1nc(N)n1nc(CCN3CCc4sc(C(F)(F)F)nc4C3)nc21` [Ex-26, 7-methoxy-2-(2-(2-(trifluoromethyl)-6,7-dihydrothiazolo[4,5-c]pyridin-5(4H)-yl)ethyl)-[1,2,4]triazolo[1,5-c]quinazolin-5-amine], 0.5 nM.
As for `COc1cccc2c1nc(N)n1nc(C[C@@H](C)N3Cc4nc(C)oc4C3)nc21` [Ex-247, (R)-7-methoxy-2-(2-(2-methyl-4H-pyrrolo[3,4-d]oxazol-5(6H)-yl)propyl)-[1,2,4]triazolo[1,5-c]quinazolin-5-amine], the figure is 0.2 nM.
In the case of `COc1cccc2c1nc(N)n1nc(CCN3Cc4cccnc4C3)nc21` [Ex-49, 2-(2-(5H-pyrrolo[3,4-b]pyridin-6(7H)-yl)ethyl)-7-methoxy-[1,2,4]triazolo[1,5-c]quinazolin-5-amine], the EC50 is 5.4 nM.
On to `COc1cccc2c1nc(N)n1nc(CC(=O)N3Cc4cccnc4C3)nc21` [Ex-77, 2-(5-amino-7-methoxy[1,2,4]triazolo[1,5-c]quinazolin-2-yl)-1-(5,7-dihydro-6H-pyrrolo[3,4-b]pyridin-6-yl)ethanone], for which the EC50 is 36.2 nM.
As for `COc1cccc2c1nc(N)n1nc(CN3CCc4ccc(NC(=O)c5ccccn5)cc4C3)nc21` [Ex-166, N-(2-((5-amino-7-methoxy-[1,2,4]triazolo[1,5-c]quinazolin-2-yl)methyl)-1,2,3,4-tetrahydroisoquinolin-7-yl)picolinamide], the figure is 4.5 nM.
For the compound `Cc1cccc2c1nc(N)n1nc(CCN3CCc4ccccc4C3)nc21` [Ex-90, 2-(2-(3,4-dihydroisoquinolin-2(1H)-yl)ethyl)-7-methyl-[1,2,4]triazolo[1,5-c]quinazolin-5-amine], the midpoint of the response, the EC50, lay at 27.9 nM.
As for `COc1cccc2c1nc(N)n1nc(CCN3Cc4[nH]nc(-c5ccccc5)c4C3)nc21` [Ex-50, 7-methoxy-2-(2-(3-phenylpyrrolo[3,4-c]pyrazol-5(1H,4H,6H)-yl)ethyl)-[1,2,4]triazolo[1,5-c]quinazolin-5-amine], the figure is 1.5 nM; as for `CCc1nnc2n1CCN(CCc1nc3c4ccc(F)cc4nc(N)n3n1)C2` [Ex-95], 16.5 nM; as for `COc1cccc2c1nc(N)n1nc(CCN3Cc4cn[nH]c4C3)nc21` [Ex-51, 7-methoxy-2-(2-(pyrrolo[3,4-c]pyrazol-5(1H,4H,6H)--yl)ethyl)-[1,2,4]triazolo[1,5-c]quinazolin-5-amine], 2.9 nM.
As for `COc1cccc2c1nc(N)n1nc(CCN3Cc4cnc(C)nc4C3)nc21` [Ex-23, 7-methoxy-2-(2-(2-methyl-5H-pyrrolo[3,4-d]pyrimidin-6(7H)-yl)-ethyl)-[1,2,4]triazolo[1,5-c]quinazolin-5-amine], the figure is 4.4 nM and 6.6 nM; as for `COc1cccc2c1nc(N)n1nc(CCN3CCCn4nc(C)cc4C3)nc21` [Ex-60, 7-methoxy-2-(2-(2-methyl-7,8-dihydro-4H-pyrazolo[1,5-a][1,4]diazepin-5(6H)-yl)ethyl)-[1,2,4]triazolo[1,5-c]quinazolin-5-amine], 2.3 nM; as for `COc1cccc2c1nc(N)n1nc(CCN3CCn4cc(C(=O)C5CC5)nc4C3)nc21` [Ex-10, (7-(2-(5-amino-7-methoxy[1,2,4]triazolo[1,5-c]quinazolin-2-yl)ethyl)-5,6,7,8-tetrahydroimidazo[1,2-a]pyrazin-2-yl)(cyclopropyl)methanone], 1.2 nM.
As for `CCOC(=O)c1nnc2n1CCN(CCc1nc3c4cccc(OC)c4nc(N)n3n1)C2` [Ex-4, ethyl 7-(2-(5-amino-7-methoxy-[1,2,4]triazolo[1,5-c]quinazolin-2-yl)ethyl)-5,6,7,8-tetrahydro-[1,2,4]triazolo[4,3-a]pyrazine-3-carboxylate], the figure is 4.6 nM; as for `COc1cccc2c1nc(N)n1nc(CN3CCc4ccc(NC(C)=O)cc4C3)nc21` [Ex-167], 7.6 nM; as for `COc1cccc2c1nc(N)n1nc(CN3CCCc4ccncc43)nc21` [Ex-135, 2-((3,4-dihydro-1,7-naphthyridin-1(2H)-yl)methyl)-7-methoxy-[1,2,4]triazolo[1,5-c]quinazolin-5-amine], 11.8 nM.
